Values joined by “and” are separate entries in the source; they are usually repeats but may differ in a detail not shown here. Equal entries are not always repeated.
Target: cAMP and cAMP-inhibited cGMP 3',5'-cyclic phosphodiesterase 10A (Homo sapiens, UniProt Q9Y233)
Assay: Enzyme Inhibition Assay: To check the inhibition profile, 5 μL of serial diluted compounds were incubated with 5 μL of diluted PDE10 enzyme (BPS Bioscience, San Diego, Calif.) or tissue homogenate in a 384-well polystyrene assay plate (Corning, Corning, N.Y.) for 30 min at room temperature. After incubation, 10 μL of diluted fluorescein labeled cAMP or cGMP substrate were added and incubated for 60 min at room temperature. The reaction was stopped by adding 60 μL of diluted binding reagents and plates were read on an Envision (Perkin Elmer, Waltham, Mass.) for time resolved fluorescence resonance energy transfer. The data were analyzed with GraphPad Prism (La Jolla, Calif.).

cAMP and cAMP-inhibited cGMP 3',5'-cyclic phosphodiesterase 10A, sequence (Q9Y233 whole entry): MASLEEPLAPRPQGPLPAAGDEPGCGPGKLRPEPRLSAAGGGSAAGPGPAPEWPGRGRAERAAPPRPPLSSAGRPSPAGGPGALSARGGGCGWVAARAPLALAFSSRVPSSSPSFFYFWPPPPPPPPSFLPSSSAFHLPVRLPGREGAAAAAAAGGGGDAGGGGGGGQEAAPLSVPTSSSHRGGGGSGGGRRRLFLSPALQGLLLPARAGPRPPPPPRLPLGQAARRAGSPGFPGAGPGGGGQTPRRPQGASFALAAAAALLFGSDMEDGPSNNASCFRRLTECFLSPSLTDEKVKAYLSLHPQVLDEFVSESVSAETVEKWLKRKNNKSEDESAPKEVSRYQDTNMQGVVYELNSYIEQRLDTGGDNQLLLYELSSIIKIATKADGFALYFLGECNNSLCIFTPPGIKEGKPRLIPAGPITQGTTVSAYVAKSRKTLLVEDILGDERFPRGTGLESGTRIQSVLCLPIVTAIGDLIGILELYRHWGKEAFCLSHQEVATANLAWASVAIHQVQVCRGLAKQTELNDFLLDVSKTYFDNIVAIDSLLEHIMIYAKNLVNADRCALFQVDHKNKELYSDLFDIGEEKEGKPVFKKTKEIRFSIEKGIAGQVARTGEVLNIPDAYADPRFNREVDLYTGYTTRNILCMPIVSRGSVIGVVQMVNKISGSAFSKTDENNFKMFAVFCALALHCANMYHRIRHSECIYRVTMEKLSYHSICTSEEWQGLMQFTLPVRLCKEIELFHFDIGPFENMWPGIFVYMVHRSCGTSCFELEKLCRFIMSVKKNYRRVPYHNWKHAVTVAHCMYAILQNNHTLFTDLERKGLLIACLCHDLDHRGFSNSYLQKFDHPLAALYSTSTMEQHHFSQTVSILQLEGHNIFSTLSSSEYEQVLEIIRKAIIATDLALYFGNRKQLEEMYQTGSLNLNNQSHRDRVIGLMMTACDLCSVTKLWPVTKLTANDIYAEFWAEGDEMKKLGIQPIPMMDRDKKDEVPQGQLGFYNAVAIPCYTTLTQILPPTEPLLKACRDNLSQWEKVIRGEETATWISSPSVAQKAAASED

| Compound | IC50 |
| --- | --- |
| CC(C)c1ccc(Cn2c(Nc3ccc(Oc4ncccc4C4CCOCC4)cc3)nc3ccccc32)cc1 | 31.9 nM |
| O=C(c1ccc(Oc2ncccc2C2CCOCC2)cc1)c1nc2ncccc2[nH]1 | 1.34 nM |
| OC(c1ccc(Oc2ncccc2C2=CCOCC2)cc1)c1nc2ccccc2s1 (stereo not given) | 516 nM |
| O=C(c1ccc(Oc2ncccc2[C@H]2CC[C@@H](O)CC2)cc1)c1nc2ccccc2[nH]1 | 0.308 nM |
| O=C(c1ccc(Oc2ncccc2[C@H]2CC[C@H](O)CC2)cc1)c1nc2ccccc2[nH]1 | 0.101 nM |
| O=C(c1ccc(Oc2ncccc2[C@H]2CC[C@](O)(C(F)(F)F)CC2)cc1)c1nc2ccccc2[nH]1 | 12.7 nM |
| CC(=O)N1CCCC[C@@H]1c1cccnc1Oc1ccc(C(=O)c2nc3ccccc3[nH]2)cc1 | 0.0645 nM |
| COc1cccnc1-c1cccnc1Oc1ccc(Nc2nc3ccccc3s2)cc1 | 232 nM |
| COc1cccc(-c2cccnc2Oc2ccc(C(=O)c3nc4ccccc4[nH]3)cc2)n1 | 2.32 nM |
| O=C(c1ccc(Oc2ncccc2[C@H]2CC[C@@](O)(C(F)(F)F)C2)cc1)c1nc2ccccc2[nH]1 | 0.728 nM |
| O=C(c1ccc(Oc2ncccc2[C@@H]2CC[C@](O)(C(F)(F)F)C2)cc1)c1nc2ccccc2[nH]1 | 1.59 nM |
| O=C(c1ccc(Oc2ncccc2[C@H]2CC[C@]3(CCO3)CC2)cc1)c1nc2ccccc2[nH]1 | 0.641 nM |
| C[C@]1(O)CC[C@H](c2cccnc2Oc2ccc(C(=O)c3nc4ccccc4[nH]3)cc2)C1 | 0.662 nM |
| C[C@]1(O)CC[C@@H](c2cccnc2Oc2ccc(C(=O)c3nc4ccccc4[nH]3)cc2)C1 | 0.763 nM |
| COc1cccnc1-c1cccnc1Oc1ccc(C(=O)c2nc3ccccc3[nH]2)cc1 | 17.1 nM |
| O=C(c1ccc(Oc2ncccc2[C@@H]2CC[C@@H](CO)C2)cc1)c1nc2ccccc2[nH]1 | 0.315 nM |
| O=C(c1ccc(Oc2ncccc2[C@@H]2CC[C@H](CO)C2)cc1)c1nc2ccccc2[nH]1 | 0.312 nM |
| O=C(c1ccc(Oc2ncccc2[C@H]2CC[C@@H](CO)C2)cc1)c1nc2ccccc2[nH]1 | 0.212 nM |
| CC(=O)N1CC=C(c2cncnc2Oc2ccc(C(=O)c3nc4ccccc4[nH]3)cc2)CC1 | 1.56 nM |
| COc1cncc(-c2cccnc2Oc2ccc(Nc3nc4ccccc4s3)cc2)c1 | 4.08 nM |
| COc1ccc(-c2cccnc2Oc2ccc(C(=O)c3nc4ccccc4[nH]3)cc2)nc1 | 8.77 nM |
| O=C(c1ccc(Oc2ncccc2[C@@H]2CCCOCC2)cc1)c1nc2ccccc2[nH]1 | 0.0505 nM |
| O=C(c1ccc(Oc2ncccc2-c2ccnc(Cl)c2)cc1)c1nc2ccccc2[nH]1 | 1.63 nM |
| C[C@@]1(O)CC[C@@H](c2cccnc2Oc2ccc(Nc3nc4ccccc4s3)cc2)C1 | 10.7 nM |
| C[C@]1(O)CC[C@H](c2cccnc2Oc2ccc(Nc3nc4ccccc4s3)cc2)C1 | 2.31 nM |
| O[C@H]1CCC[C@H](c2cccnc2Oc2ccc(Nc3nc4ccccc4s3)cc2)C1 | 9.93 nM |
| O=C1CCCC(c2cccnc2Oc2ccc(C(=O)c3nc4ccccc4[nH]3)cc2)CC1 (stereo not given) | 0.077 nM |
| Fc1ccc(Cn2c(Nc3ccc(Oc4ncccc4C4CCOCC4)cc3)nc3ccccc32)cc1 | 9.12 nM |

| Compound | IC50 |
| --- | --- |
| O=C(c1ccc(Oc2ncccc2[C@@H]2CCC[C@@H](O)C2)cc1)c1nc2ccccc2[nH]1 | 0.145 nM and 0.585 nM |
| CC(=O)N1CCC(c2cccnc2Oc2ccc(C(=O)c3nc4ccccc4n3C)cc2)CC1 | 1.06 nM |
| COc1cnccc1-c1cccnc1Oc1ccc(C(=O)c2nc3ccccc3[nH]2)cc1 | 0.261 nM |
| O=C(c1ccc(Oc2ncccc2[C@H]2CCC[C@H](O)C2)cc1)c1nc2ccccc2[nH]1 | 1.71 nM |
| Cn1c(C(=O)c2ccc(Oc3ncccc3-c3ccnc(F)c3)cc2)nc2ccccc21 | 10.3 nM |
| Cc1cc(-c2cccnc2Oc2ccc(C(=O)c3nc4ccccc4n3C)cc2)ccn1 | 6.17 nM |
| CC(=O)N1CC[C@@H](c2cccnc2Oc2ccc(C(=O)c3nc4ccccc4[nH]3)cc2)C1 | 0.528 nM |
| COc1ccc(Cn2c(Nc3ccc(Oc4ncccc4C4CCOCC4)cc3)nc3ccccc32)cc1 | 1.7 nM |
| COc1nc2ccccc2cc1-c1cccnc1Oc1ccc(C(=O)c2nc3ccccc3[nH]2)cc1 | 419 nM |
| c1ccc(-n2ncc3cc(Oc4ncccc4C4CCCCC4)ccc32)nc1 | 417 nM |
| O=C(c1ccc(Oc2ncccc2-c2cccnc2F)cc1)c1nc2ccccc2[nH]1 | 0.162 nM |
| O=C(c1ccc(Oc2ncccc2-c2cc[nH]c(=O)c2)cc1)c1nc2ccccc2[nH]1 | 1.17 nM |
| COc1ccc(-c2cccnc2Oc2ccc(C(=O)c3nc4ccccc4[nH]3)cc2)c(OC)n1 | 0.694 nM |
| CSc1cncc(-c2cccnc2Oc2ccc(C(=O)c3nc4ccccc4[nH]3)cc2)c1 | 1.06 nM |
| O=C(c1ccc(Oc2ncccc2C2CCS(=O)(=O)CC2)cc1)c1nc2ccccc2[nH]1 | 0.631 nM |
| COc1cc(-c2cccnc2Oc2ccc(Nc3nc4ccccc4s3)cc2)ccn1 | 11.9 nM |
| COc1cnccc1-c1cccnc1Oc1ccc(C(=O)c2nc3ccccc3n2C)cc1 | 0.121 nM |
| COc1cnccc1-c1cccnc1Oc1ccc(Nc2nc3ccccc3s2)cc1 | 0.747 nM |
| COc1ccncc1-c1cccnc1Oc1ccc(C(=O)c2nc3ccccc3[nH]2)cc1 | 0.0725 nM |
| O=C(c1ccc(Oc2ncccc2C2CCOC2)cc1)c1nc2ccccc2n1CCF (stereo not given) | 2.29 nM |
| COc1ccncc1-c1cccnc1Oc1ccc(Nc2nc3ccccc3s2)cc1 | 0.902 nM |
| COc1ccnc(-c2cccnc2Oc2ccc(C(=O)c3nc4ccccc4[nH]3)cc2)c1 | 4.11 nM |
| COc1ccnc(-c2cccnc2Oc2ccc(C(=O)c3nc4ccccc4n3C)cc2)c1 | 1.79 nM |
| Cc1cnc(Oc2ccc(C(=O)c3nc4ccccc4[nH]3)cc2)c(-c2ccnc(C)c2)c1 | 1.38 nM |
| Cc1cnc(Oc2ccc(C(=O)c3nc4ccccc4n3C)cc2)c(-c2ccnc(C)c2)c1 | 1.14 nM |
| COc1ncc(-c2ccnc(F)c2)c(Oc2ccc(C(=O)c3nc4ccccc4[nH]3)cc2)n1 | 22.9 nM |
| O=C(c1ccc(Oc2ncccc2C2CCNCC2)cc1)c1nc2ccccc2[nH]1 | 2.07 nM |

— ChEMBL document CHEMBL3638462, “Pyridine and pyrimidine derivatives as phosphodiesterase 10 inhibitors” (2014)
